Source: patent US11590116B2 (THERAVANCE BIOPHARMA R&D IP, LLC, priority 2019, dated 2023)

Tests used:
[1] = test system: TGF-β-stimulated SMAD3 phosphorylation in BEAS-2B cells; test: Cellular ALK5 potency assay, inhibition of TGF-β stimulated pSMAD3 formation in BEAS-2B cells; type: cell-based; conditions: Homo sapiens; inhibition of TGF-β stimulated pSMAD3 formation, BEAS-2B cells; read-out: BEAS2B pIC50 (converted)
In short: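 SMAD3 phosphorylation was measured by AlphaLISA after 30 min TGF-β stimulation (10 ng/mL final) of BEAS-2B cells preincubated 1 h with compound at 37 °C. Results given as pIC50.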

[2] = molecular target: T1, recombinant human ALK5 (TGF-βR1) protein (Homo sapiens, UniProt P36897); test: Biochemical ALK5 (TGF-βR1) assay to measure pKi (LANCE Ultra ULight kinase assay); conditions: apparent pKi from pIC50 by Cheng-Prusoff, read-out: ALK5 pKi (converted)
T1 construct: purchased Life Technologies PR9075A
T1 sequence (P36897 34-503): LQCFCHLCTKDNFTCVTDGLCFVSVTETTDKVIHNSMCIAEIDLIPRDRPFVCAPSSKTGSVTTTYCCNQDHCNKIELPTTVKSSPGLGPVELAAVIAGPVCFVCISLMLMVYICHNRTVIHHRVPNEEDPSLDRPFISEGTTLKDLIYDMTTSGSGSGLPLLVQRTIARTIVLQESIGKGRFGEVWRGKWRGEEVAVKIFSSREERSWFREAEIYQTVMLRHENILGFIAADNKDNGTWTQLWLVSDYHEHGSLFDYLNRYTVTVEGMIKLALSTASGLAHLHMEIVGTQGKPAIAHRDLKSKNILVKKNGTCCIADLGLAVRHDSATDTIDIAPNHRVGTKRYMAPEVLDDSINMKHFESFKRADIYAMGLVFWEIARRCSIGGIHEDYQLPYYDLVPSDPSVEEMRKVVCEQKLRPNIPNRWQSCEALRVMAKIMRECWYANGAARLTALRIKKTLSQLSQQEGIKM
In short: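 Compounds (10 μM to 25 pM) preincubated 60 minutes at room temperature with enzyme, then reaction run 60 minutes at 37° C with ATP added as 125 μM (5× final). Stopped with EDTA plus Eu-anti-phospho-Topoisomerase 2-alpha (Thr1342) antibody, TR-FRET read at 665 nm; pIC50 converted to pKi via Cheng-Prusoff.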

Row | Structure (SMILES) | Ki [2] [nM] | IC50 [1] [nM]
1 | Cc1cccc(-c2c(-c3ccc4ncc(NCCN5CCN(C(C)C)CC5)cc4c3)nnn2Cc2ccccc2)n1 [Compound 351, 6-[1-benzyl-5-(6-methyl-2-pyridyl)triazol-4-yl]-N-[2-(4-isopropylpiperazin-1-yl)ethyl]quinolin-3-amine] | 3.98 to 31.6 | 200 to 1260
2 | Cc1cccc(-c2[nH]cnc2-c2ccc3ncc(C(=O)OC4CNC4)cc3c2)n1 [Compound 739, azetidin-3-yl 6-[5-(6-methyl-2-pyridyl)-1H-imidazol-4-yl]quinoline-3-carboxylate] | 0.0398 to 0.316 | 25.1 to 158
3 | Cc1cccc(-c2[nH]cnc2-c2ccc3ncc(-c4ccc(C(=O)OCCN5CCNCC5)s4)cc3c2)n1 [Compound 1088, 2-piperazin-1-ylethyl 5-[6-[5-(6-methyl-2-pyridyl)-1H-imidazol-4-yl]-3-quinolyl]thiophene-2-carboxylate] | 0.0398 to 0.316 | 25.1 to 158
4 | Cc1cccc(-c2[nH]cnc2-c2ccc3ncc(-c4csc(C(=O)OC[C@H]5CCCN5)c4)cc3c2)n1 [Compound 1219, [(2R)-pyrrolidin-2-yl]methyl 4-[6-[5-(6-methyl-2-pyridyl)-1H-imidazol-4-yl]-3-quinolyl]thiophene-2-carboxylate] | < 0.0316 | 25.1 to 158
5 | Cc1cccc(-c2[nH]nnc2-c2ccc3ncc(N4CCC(N5CCN(C)CC5)CC4)cc3n2)n1 [Compound 119, 7-[4-(4-methylpiperazin-1-yl)-1-piperidyl]-2-[5-(6-methyl-2-pyridyl)-1H-triazol-4-yl]-1,5-naphthyridine] | 0.0398 to 0.316 | 200 to 1260
6 | Cc1cccc(-c2n[nH]cc2-c2ccc3nccc(CN(C)CCCN4CCOCC4)c3n2)n1 [Compound 853, N-methyl-N-[[6-[3-(6-methyl-2-pyridyl)-1H-pyrazol-4-yl]-1,5-naphthyridin-4-yl]methyl]-3-morpholino-propan-1-amine] | 0.0398 to 0.316 | 25.1 to 158
7 | Cc1cccc(-c2nc3ccccn3c2-c2ccc3ncc(N4CCC(N(C)C)CC4)cc3n2)n1 [Compound 683, N,N-dimethyl-1-[6-[2-(6-methyl-2-pyridyl)imidazo[1,2-a]pyridin-3-yl]-1,5-naphthyridin-3-yl]piperidin-4-amine] | 0.0398 to 0.316 | 25.1 to 158
8 | Cc1cccc(-c2nc3ccccn3c2-c2ccc3ncc(-c4cnn(CCN)c4)cc3n2)n1 [Compound 660, 2-[4-[6-[2-(6-methyl-2-pyridyl)imidazo[1,2-a]pyridin-3-yl]-1,5-naphthyridin-3-yl]pyrazol-1-yl]ethanamine] | 0.0398 to 0.316 | 25.1 to 158
9 | Cc1cccc(-c2[nH]cnc2-c2ccc3ncc(-c4nccc(C(=O)OCC5CNC5)n4)cc3c2)n1 [Compound 1098, azetidin-3-ylmethyl 2-[6-[5-(6-methyl-2-pyridyl)-1H-imidazol-4-yl]-3-quinolyl]pyrimidine-4-carboxylate] | 0.0398 to 0.316 | 200 to 1260
10 | Cc1cccc(-c2[nH]cnc2-c2ccc3ncc(-c4ccc(C(=O)O[C@H]5CCN(C)C5)s4)cc3c2)n1 [Compound 1008, (S)-1-methylpyrrolidin-3-yl 5-(6-(5-(6-methylpyridin-2-yl)-1H-imidazol-4-yl)quinolin-3-yl)thiophene-2-carboxylate] | 0.0398 to 0.316 | 25.1 to 158
11 | Cc1cccc(-c2[nH]cnc2-c2ccc3ncc(-c4cncc(C(=O)O[C@@H]5CCN(C)C5)c4)cc3c2)n1 [Compound 396, [(3R)-1-methylpyrrolidin-3-yl] 5-[6-[5-(6-methyl-2-pyridyl)-1H-imidazol-4-yl]-3-quinolyl]pyridine-3-carboxylate] | 0.0398 to 0.316 | 25.1 to 158
12 | Cc1cccc(-c2[nH]cnc2-c2ccc3ncc(-c4ccc(C(=O)OCCN5CCC[C@@H](N)C5)cn4)cc3c2)n1 [Compound 1174, 2-[(3R)-3-amino-1-piperidyl]ethyl 6-[6-[5-(6-methyl-2-pyridyl)-1H-imidazol-4-yl]-3-quinolyl]pyridine-3-carboxylate] | 0.0398 to 0.316 | 25.1 to 158
13 | CNCCn1cc(-c2cnc3ccc(-c4c[nH]nc4-c4cccc(C(F)(F)F)n4)nc3c2)cn1 [Compound 237, N-methyl-2-(4-(6-(3-(6-(trifluoromethyl)pyridin-2-yl)-1H-pyrazol-4-yl)-1,5-naphthyridin-3-yl)-1H-pyrazol-1-yl)ethan-1-amine] | < 0.0316 | 25.1 to 158
14 | Cc1cccc(-c2[nH]cnc2-c2ccc3ncc(-c4cnn(CCN)c4)cc3c2)n1 [Compound 572, 2-[4-[6-[5-(6-methyl-2-pyridyl)-1H-imidazol-4-yl]-3-quinolyl]pyrazol-1-yl]ethanamine] | 0.0398 to 0.316 | 25.1 to 158

Second part, led by results:

Row | Ki [2] [nM] | Structure (SMILES) | IC50 [1] [nM]
15 | 0.0398 to 0.316 | COC(=O)Cn1cc(-c2cnc3ccc(-c4c[nH]nc4-c4cccc(C)n4)nc3c2)cn1 [Compound 673, methyl 2-[4-[6-[3-(6-methyl-2-pyridyl)-1H-pyrazol-4-yl]-1,5-naphthyridin-3-yl]pyrazol-1-yl]acetate] | 25.1 to 158
16 | < 0.0316 | CNCCn1ccc(-c2cnc3ccc(-c4c[nH]nc4-c4cccc(C(C)C)n4)nc3c2)n1 [Compound 276, 2-[3-[6-[3-(6-isopropyl-2-pyridyl)-1H-pyrazol-4-yl]-1,5-naphthyridin-3-yl]pyrazol-1-yl]-N-methyl-ethanamine] | 25.1 to 158
17 | < 0.0316 | Cc1cccc(-c2n[nH]cc2-c2ccc3ncc(N(C)C4CCN(C(C)C)C4)cc3n2)n1 (racemic) [Compound 503, N-methyl-6-[3-(6-methyl-2-pyridyl)-1H-pyrazol-4-yl]-N-[rac-(3R)-1-isopropylpyrrolidin-3-yl]-1,5-naphthyridin-3-amine] | 25.1 to 158
18 | 0.398 to 3.16 | Cc1cccc(-c2n[nH]cc2-c2ccc3nccc(CCC(=O)N4CCOCC4)c3n2)n1 [Compound 810, 3-[6-[3-(6-methyl-2-pyridyl)-1H-pyrazol-4-yl]-1,5-naphthyridin-4-yl]-1-morpholino-propan-1-one] | 200 to 1260
19 | < 0.0316 | Cc1nc(-c2n[nH]cc2-c2ccc3ncc(-c4cn[nH]c4)cc3n2)ccc1F [Compound 482, 2-[3-(5-fluoro-6-methyl-2-pyridyl)-1H-pyrazol-4-yl]-7-(1H-pyrazol-4-yl)-1,5-naphthyridine] | < 20
20 | 0.0398 to 0.316 | Cc1cccc(-c2n[nH]cc2-c2ccc3ncc(N(C)C)cc3n2)n1 [Compound 59, N,N-dimethyl-6-[3-(6-methyl-2-pyridyl)-1H-pyrazol-4-yl]-1,5-naphthyridin-3-amine] | < 20
21 | < 0.0316 | Cc1cccc(-c2n[nH]cc2-c2ccc3ncc(-c4cn(C)nn4)cc3n2)n1 [Compound 71, 2-[3-(6-methyl-2-pyridyl)-1H-pyrazol-4-yl]-7-(1-methyltriazol-4-yl)-1,5-naphthyridine] | 25.1 to 158
22 | < 0.0316 | Cc1cccc(-c2n[nH]cc2-c2ccc3ncc(-c4cccnc4O)cc3n2)n1 [Compound 585, 3-[6-[3-(6-methyl-2-pyridyl)-1H-pyrazol-4-yl]-1,5-naphthyridin-3-yl]pyridin-2-ol] | 25.1 to 158
23 | 0.0398 to 0.316 | Cc1cccc(-c2n[nH]cc2-c2ccc3ncc(NC4CCCNC4)cc3n2)n1 (centres unmarked) [Compound 543, 6-[3-(6-methyl-2-pyridyl)-1H-pyrazol-4-yl]-N-(3-piperidyl)-1,5-naphthyridin-3-amine] | 25.1 to 158
24 | < 0.0316 | Cc1cccc(-c2n[nH]cc2-c2ccc3ncc(-c4cnn(CCN(C)C)c4)cc3n2)n1 [Compound 221, N,N-dimethyl-2-[4-[6-[3-(6-methyl-2-pyridyl)-1H-pyrazol-4-yl]-1,5-naphthyridin-3-yl]pyrazol-1-yl]ethanamine] | 25.1 to 158
25 | 0.0398 to 0.316 | Cc1cccc(-c2n[nH]cc2-c2ccc3ncc(NC(=O)CCN4CCOCC4)cc3n2)n1 [Compound 286, N-[6-[3-(6-methyl-2-pyridyl)-1H-pyrazol-4-yl]-1,5-naphthyridin-3-yl]-3-morpholino-propanamide] | 25.1 to 158
26 | 0.0398 to 0.316 | Cc1cccc(-c2n[nH]cc2-c2ccc3ncc(C(N)=O)cc3n2)n1 [Compound 607, 6-[3-(6-methyl-2-pyridyl)-1H-pyrazol-4-yl]-1,5-naphthyridine-3-carboxamide] | 25.1 to 158
27 | < 0.0316 | CNCCn1cc(-c2cnc3ccc(-c4c[nH]nc4-c4cccc(C)n4)nc3c2)cn1 [Compound 487, N-methyl-2-[4-[6-[3-(6-methyl-2-pyridyl)-1H-pyrazol-4-yl]-1,5-naphthyridin-3-yl]pyrazol-1-yl]ethanamine] | < 20
28 | < 0.0316 | Cc1cccc(-c2n[nH]cc2-c2ccc3ncc(-c4ccnnc4)cc3n2)n1 [Compound 215, 2-[3-(6-methyl-2-pyridyl)-1H-pyrazol-4-yl]-7-pyridazin-4-yl-1,5-naphthyridine] | < 20
